These results are taken from paper PMC4021102, “The onset of grapevine berry ripening is characterized by ROS accumulation and lipoxygenase-mediated membrane peroxidation in the skin” (BMC Plant Biology, 2014).

This experiment has as its target T1, PnLOXA (Vitis vinifera, UniProt D7SLA9).
T1 construct: gene VIT_06s0004g01510
As to conditions: 0.1 mM substrate, pH 6.5, 25 °C; exclusively 13-product.

T1 sequence (D7SLA9 entry or part of it): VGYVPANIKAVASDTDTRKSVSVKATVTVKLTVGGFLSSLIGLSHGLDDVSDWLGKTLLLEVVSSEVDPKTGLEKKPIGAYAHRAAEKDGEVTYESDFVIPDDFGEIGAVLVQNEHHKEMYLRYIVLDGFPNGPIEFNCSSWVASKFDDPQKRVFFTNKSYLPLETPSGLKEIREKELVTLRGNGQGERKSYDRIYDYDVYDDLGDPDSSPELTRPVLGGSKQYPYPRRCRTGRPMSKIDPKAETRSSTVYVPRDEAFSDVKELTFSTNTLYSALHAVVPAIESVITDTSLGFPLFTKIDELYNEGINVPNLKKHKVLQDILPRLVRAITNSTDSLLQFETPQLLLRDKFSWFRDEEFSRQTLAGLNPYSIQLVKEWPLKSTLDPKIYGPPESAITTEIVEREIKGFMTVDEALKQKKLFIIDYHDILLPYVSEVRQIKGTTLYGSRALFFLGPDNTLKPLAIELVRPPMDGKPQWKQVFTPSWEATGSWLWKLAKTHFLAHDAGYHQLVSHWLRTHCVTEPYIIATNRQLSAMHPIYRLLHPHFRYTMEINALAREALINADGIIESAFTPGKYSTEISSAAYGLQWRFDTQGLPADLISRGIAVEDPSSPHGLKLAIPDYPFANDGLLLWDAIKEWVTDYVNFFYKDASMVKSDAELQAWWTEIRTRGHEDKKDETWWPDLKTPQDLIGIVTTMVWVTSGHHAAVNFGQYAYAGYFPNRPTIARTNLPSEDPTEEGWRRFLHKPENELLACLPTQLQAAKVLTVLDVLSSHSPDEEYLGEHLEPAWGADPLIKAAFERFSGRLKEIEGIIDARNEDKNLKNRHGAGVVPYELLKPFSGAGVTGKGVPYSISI

With `CC/C=C\C/C=C\C/C=C\CCCCCCCC(=O)O` [α-linolenic acid], the “peroxidation product identified by ESI-MS/MS” value is on record as “PnLOXA catalyzed the regiospecific peroxidation of α-linolenic acid to produce exclusively 13-HOTrE”.
